The values below come from patent US20210337838A1, “RECOMBINANT EXPRESSION OF FUMONISIN AMINE OXIDASE” (priority 2018, published 2021).

The target of data set [1] is T1, AnFAO_15309 (Aspergillus niger, UniProt A2R252). Description: Kinetic analysis of recombinant AnFAO_15309. The format is biochemical. Here is the method:
(§1) Absorbance was monitored at 571 nm every 10 mins for 1 hr. A standard curve consisting of 0-10 μM H2O2 was included to determine the absorbance for every μmol of H2O2 generated by the reaction.
The resulting mixture was twice extracted with equal volumes of ethyl acetate, dried, and re-suspended in reaction buffer.

Data set [2] relates to fumonisin deamination activity from A. niger culture supernatants. Briefly: Fumonisin chemotype preference of deamination activity, reverse-phase LC-MS. It is filed as biochemical, Aspergillus niger. The settings on record: for initial conversion rate of intact to deaminated fumonisin: FB1 and FB2 co-incubated at 37° C. with active sample following high-resolution ion exchange, n=2.
Description: After each step, protein fractions were assayed for deamination activity by monitoring their ability to convert intact FB2 into FPy2 via reverse-phase liquid chromatography/mass spectrometry (LC-MS), as shown in FIG. 2. In particular, all MS data were collected with a Q-Exactive™ Quadrupole Orbitrap™ mass spectrometer (Thermo Scientific, MA, USA) coupled to an Agilent 1290 ultra-high-performance liquid chromatography (UHPLC) system. Fumonisins were resolved on a Zorbax™ Eclipse Plus Rapid Resolution High Definition (RRHD) C18 column (2.1×50 mm, 1.8 μm; Agilent Technologies, CA, USA), maintained at 35° C. The mobile phase was comprised of water with 0.1% formic acid (A), and acetonitrile with 0.1% formic acid (B) (Optima grade, Fisher Scientific, NJ, USA). The gradient consisted of 0% B for 0.5 min before increasing to 100% over 3 min, held at 100% for 2.5 min and reduced to 0% over 0.5 min. The fumonisins were detected in negative ionization mode using the following electrospray conditions: capillary voltage, 4.0 kV; capillary temperature, 400° C.; sheath gas, 17.00 units; auxiliary gas, 8.00 units; probe heater temperature, 450° C.; S Lens RF level, 45.00. The data-dependent acquisition method involved a full MS scan at 17,500 resolution over a scan range of 140-760 m/z; automatic gain control (AGC) target and maximum injection time (max IT) was 5×10^6 and 64 ms, respectively. The five highest intensity ions from the full scan (excluding isotopes) were sequentially selected using a 1.2 m/z isolation window and analyzed at a resolution of 17,500; AGC target, 1×10^5; max IT, 64 ms; normalized collision energy (NCE) 30; threshold intensity 9.1×10^4; and dynamic exclusion of 1.5 s. Fumonisins were detected by accurate mass (±5 ppm) and retention time (±0.1 min) and verified by MS/MS.
All samples assayed during protein purification were incubated at 37° C. with 1 μM FB2 (Sigma) unless stated otherwise. Reactions were terminated via addition of a 10-fold volume excess of 50% (v:v) methanol in water prior to reverse-phase LC/MS analysis represented in FIG. 2.

Data set [3] deals with T1, AnFAO_15309. It is filed as biochemical. The settings on record: 20 nM enzyme, 50 μM substrate, pH 7.0, 1 hr. Here is the method:
as §1

Substrate in data set [4]: CCCCCCCCCCCCCCC[C@@H](O)[C@@H](N)CO
Briefly: purified protein, by the assay type. To be noted: other: recombinant AnFAO_15309; pH 7.0.

Substrate in data set [5]: CCCC[C@@H](C)[C@@H](O)[C@@H](O)C[C@@H](C)C[C@H](O)CCCC[C@@H](O)C[C@H](O)[C@H](C)N
Description: purified protein, by the assay type. To be noted: other: recombinant AnFAO_15309; pH 7.0.

The nature of data set [6]: Circular dichroism thermal denaturation. The settings on record: 0.3 mg/ml, 20 mM Tris-HCl (pH 7.4), 50 mM NaCl, 0.75 mM DTT, monitored at 222, 20 to 95° C. The format is physicochemical. Here is the method:
Activity was measured via reverse-phase LC/MS analysis. […] All proteins were scanned at a concentration of 0.3 mg/ml in buffer containing 20 mM Tris-HCl (pH 7.4), 50 mM NaCl and 0.75 mM DTT. Thermal denaturation was monitored at […] with a temperature scan ranging from 20 to 95° C., increasing by 1° C. per minute with data collection every 30 seconds. Baseline corrected data were converted from millidegrees to mean residue ellipticity, and thermal denaturation curves were produced by nonlinear regression in Graphpad Prism.
(In general: Circular dichroism is widely used to follow secondary structure.)

Data set [7] in a line: Amplex red assay of AnFAO homolog clones. The format is biochemical. The source says: Seven of the AnFAO homologs were synthesized and cloned into the MBP-TEV vector for recombinant expression in E. coli.

Where two headings read alike, the source gives them in different places.

Consider Fumonisin B1 [FB1], for which the “fold change (efficiency compared to FB2)” value in data set [1] (kcat/KM relative to FB2 = 1.0) is recorded as 0.3 fold. In addition, the “initial conversion rate of intact to deaminated fumonisin” value in data set [2] stood at 2.1±0.1 % hr^−1.
In the case of `NCCc1c[nH]c2ccc(O)cc12` [serotonin], the “relative activity, relative to FB3 (100% activity)” value (“relative activity … (100% activity)” for short) in data set [3] is reported as 3.7%.
On the same count and under the same terms, the same measure for `NCCCC[C@H](N)C(=O)O` [lysine]: 6.3%.
A word on the kcat: it is the number of substrate molecules converted per active site and unit of time at saturation. For the molecule `CCCC[C@@H](C)[C@@H](O)[C@@H](O)C[C@@H](C)C[C@H](O)CCCC[C@@H](O)C[C@H](O)[C@H](C)N` [hFB1], the “fold change (efficiency compared to FB2)” value in data set [1] (kcat/KM relative to FB2 = 1.0) was 4.6 fold. The kcat in data set [1] (recombinant AnFAO_15309) is 0.298 s⁻¹.
`CCCC[C@@H](C)[C@@H](OC(=O)CC(CC(=O)O)C(=O)O)[C@H](C[C@@H](C)C[C@H](O)CCCCCC[C@@H](O)[C@H](C)N)OC(=O)CC(CC(=O)O)C(=O)O` (stereo partly drawn) [FB3]: the “relative activity … (100% activity)” value in data set [3] is listed as 100%.
Still for that read-out and setting: the same measure for `NCCc1ccc(O)c(O)c1` [dopamine]: 9.7%.
With `CCCN` [propylamine], the “relative activity … (100% activity)” value in data set [3] was 5.6%.
On the same count and under the same terms, the same measure for `NCCCNCCCCNCCCN` [spermine]: 1.9%; for `NCc1ccccc1` [benzylamine]: 1.4%.
What is called Km is the concentration of substrate that gives half-maximal velocity. Turning to `CCCC[C@@H](C)[C@@H](OC(=O)C[C@@H](CC(=O)O)C(=O)O)[C@H](C[C@@H](C)CCCCCC[C@@H](O)C[C@H](O)[C@H](C)N)OC(=O)C[C@@H](CC(=O)O)C(=O)O` [FB2, fumonisin B2], in data set [1] (kcat/KM relative to FB2 = 1.0), the “fold change (efficiency compared to FB2)” value is 1.0 fold. In data set [1] (recombinant AnFAO_15309), the Km worked out at 195 µM and the catalytic constant (kcat) turned out to be 0.228 s⁻¹. Also, in data set [1] (relative to FB1), the “efficiency at deaminating FB2 compared to FB1” value stood at 3.2 fold, the “increase in catalytic efficiency (kcat) FB2 vs. FB1” value is listed as around 1.6 fold and the “stronger affinity (KM) FB2 vs. FB1” value is reported as around 2 fold. Also, the “initial conversion rate of intact to deaminated fumonisin” value in data set [2] amounted to 24.3±1.5 % hr^−1. Moreover, in data set [2] (co-incubation of FB1 and FB2 at 37° C.), the “chemotype preference for FB2 compared to FB1” value was “order of magnitude”.
In the case of `NCCCCNCCCN` [spermidine], in data set [3], the “relative activity … (100% activity)” value was determined as 1.4%.
Consider `CCCCCCCCCCCCCCC[C@@H](O)[C@@H](N)CO` [sphinganine], for which the “fold change (efficiency compared to FB2)” value in data set [1] was found to be 16.6 fold. The kcat in data set [1] (recombinant AnFAO_15309) was found to be 0.612 s⁻¹.
On to `NCCc1ccc(O)cc1` [tyramine], for which the “relative activity … (100% activity)” value in data set [3] came to 5.8%.
Still for that read-out and setting: the same measure for `N[C@H]1C(O)O[C@H](CO)[C@@H](O)[C@@H]1O` (stereo partly drawn) [glucosamine]: 1.2%.

B1: AnFAO_15309 (Aspergillus niger CBS 513.88) (protein)
chain: MSVSNDPTTKLYDAVIVGAGLSGLQAAHSIQAAGFSVCILEATDRMGGKTLTVKSSEKGYNDLGAAWVNDTNQTEIFKLHQRYGLDGVVQYTCGDDILESGEGVIRKIPYGLPLTGLPKKLLDILRIESSRLDLDDPTSFPGATEVDNLTFRDFCVEKTGSEDVIHITDAISTALLGLNSNELSALYMLYYFKSGSGIDNLLSDERDGAQYLRTRQGTQTIARKMADELTQSDIFLGMPVTSINQTDADAHCVVQTLDGSSFRCRRVIVSIPTTLYRSVSFHPPLPHAKQVLSDHTIMGYYSKVIFIFKEPWWRDAGLTGIVNCAGGPITFTRDTSVPTDDQWSITCFMVGSRGRAWSKLSKDDRYSQVWEQFRRCFEEFVENIPEPVNTLEMEWSKEPYFLGAPCPAMIPGLLTTAGSDLAAPHGKVHFIGTETSTVWRGYMEGAIRAGQRGGAEVVTALQED
Broadly, the kcat/Km is the second-order rate constant that governs catalysis at low substrate concentration. With B1, in data set [4], the Km stood at 31.4 µM, the kcat worked out at 0.612 s⁻¹ and the specificity constant (kcat/Km) was 19000 M⁻¹ s⁻¹. Moreover, in data set [5], the Km stood at 55.2 µM, the turnover number (kcat) is 0.298 s⁻¹ and the kcat/Km turned out to be 5400 M⁻¹ s⁻¹.

B2: AnFAO_10927: AnFAO homolog clone, SEQ ID NO: 27 (protein)
chain: MSVSNDPTTKLYDAVIVGAGLSGLQAAHSIQAAGFSVCILEATDRVGGKTLTVKSSEKGYNDLGAAWVNDTNQTEIFKLHQRYGLDGVVQYTCGDDILESGEGVIRKIPYGLPLTGLPKKLLDILRIESSRLDLDDPTSFPGATEVDNLTFRDFCVEKTGSEDVIHITDAISTALLGLNSNELSALYMLYYFKSGSGIDNLLSDERDGAQYLRTRQGTQTIARKMADELSQSDIFLGMPVTSINQTDADAHCVVKTLDGSSFRCRRVIVSIPTTLYRSVSFHPPLPHAKQVLSDHTIMGYYSKVIFIFKEPWWRDAGLTGIVDCAGGPITFTRDTSVPTDDQWSITCFMVGSRGRAWSKLSKDDRYSQVWEQFRRFFEEFVENIPEPANTLEMEWSKEPYFLGAPCPAMIPGLLTTAGSDLAAPHGKVHFIGTETSTVWRGYMEGAIRAGQRGGAEVVTALQED
modifications: Aspergillus niger
With B2, the melting temperature in data set [6] was 76 °C. The “activity compared to 15309” value in data set [7] (80 nM enzyme, 25 μM FB1, pH 7) is 31%.

B3: AnFAO_6142: AnFAO homolog clone, SEQ ID NO: 28, identical to AnFAO_10929; substitutions M46V, R82Q, V267L vs AnFAO_15309 (protein)
chain: MSVSNDPTTKLYDAVIVGAGLSGLQAAHSIQAAGFSVCILEATDRVGGKTLTVKSSEKGYNDLGAAWVNDTNQTEIFKLHQQYGLDGVVQYTCGDDILESGEGVIRKIPYGLPLTGLPKKLLDILRIESSRLDLDDPTSFPGATEVDNLTFRDFCVEKTGSEDVIHITDAISTALLGLNSNELSALYMLYYFKSGSGIDNLLSDERDGAQYLRTRQGTQTIARKMADELTQSDIFLGMPVTSINQTDADAHCVVQTLDGSSFRCRRLIVSIPTTLYRSVSFHPPLPHAKQVLSDHTIMGYYSKVIFIFKEPWWRDAGLTGIVNCAGGPITFTRDTSVPTDDQWSITCFMVGSRGRAWSKLSKDDRYSQVWEQFRRCFEEFVENIPEPVNTLEMEWSKEPYFLGAPCPAMIPGLLTTAGSDLAAPHGKVHFIGTETSTVWRGYMEGAIRAGQRGGAEVVTALQED
modifications: Aspergillus niger
notes: substitutions M46V, R82Q, V267L vs AnFAO_15309
B3 displayed a melting temperature in data set [6] of 76 °C. For the same molecule, the “activity compared to AnFAO_15309 (fold)” value in data set [7] (80 nM enzyme, 25 μM FB1, pH 7) was 2.5 ×. Further, the relative activity entry in data set [7] (relative to AnFAO_15309 = 1) is given as “(relative activity = 2.5):”.

B4: AnFAO_7097: AnFAO homolog clone, SEQ ID NO: 29 (protein)
chain: MSVSNDPTTKLYDAVIVGAGLSGLQAAHSIQAAGFSVCILEATDRVGGKTLTVKSSEKGYNDLGAAWVNDTNQTEIFKLHQQYGLDGVVQYTCGDDILESGEGVIRKIPYGLPLTGLPKKLLDILRIESSRLDLDDPTSFPGATEVDNLTFRDFCVEKTGSEDVIHITDAISTALLGLNSNELSALYMLYYFKSGSGIDNLLSDERDGAQYLRTRQGTQTIARKMADELTQSDIFLGMPVTSINQTDADAHCVVQTLDGSSFRCRRVIVSIPTTLYRSVSFHPPLPHAKQVLSDHTIMGYYSKVIFIFKEPWWRDAGLTGIVDCAGGPITFTRDTSVPTDDQWSITCFMVGSRGRAWSKLSKDDRYSQVWEQFRRCLEGFVENIPEPANTLEMEWSKEPYFLGAPCPAMIPGLLTTTGSDLAAPHGKVHFIGTETSTVWRGYMEGAIRAGQRGGAEVVTALQED
modifications: Aspergillus niger
For B4, the “activity compared to 15309” value in data set [7] (80 nM enzyme, 25 μM FB1, pH 7) came out at 27%.
